The subject of experiment [1] is glucose incorporation into lactate and nucleotides (PPP). Kind of experiment: 13C-1,2 glucose tracing by LC-HRMS. Format: cell-based, human. The conditions noted are these: 10 mM 13C-1,2 glucose, 36 hours. Here is the method: Tissue samples and cell lines were previously collected from PDAC patients by rapid autopsy, sequenced-validated, and monitored for mycoplasma as previously described. Low passage (2-17) rapid autopsy cell lines were cultured at 37° C. in DMEM with 10% fetal bovine serum (FBS, Gibco). For MTT assays, 15,000 cells/well were plated into 96 well plates in triplicate, treated 12 hours later, and assayed after 24 hr (glucose responses) or 6 days (chemotherapy) with CellTiter96 (Promega). For glucose response assays, nutrient-deplete DMEM (no glucose, glutamine, pyruvate, or serum) was used with addition of glucose as indicated. […] Cells were then washed with PBS, trypsinized, and viable cells counted with a hemocytometer. Glucose uptake and lactate secretion were measured with a YSI 7100 Bioanalyzer as described in the supplementary methods. […]
LC-HRMS Metabolite Profiling. LC-HRMS samples were prepared and analyzed as described in Liu et al. (Development and quantitative evaluation of a high-resolution metabolomics technology. Anal Chem 86, 2175-84 (2014)). […] Additional replicates were also included and counted at the end of the experiment for normalization. […] Pellets were reconstituted into a volume normalized to protein content (15 uL of 1:1 acetonitrile:methanol and 15 uL of water was used per 1 mg protein) and analyzed by LC-QE-MS. […]

Experiment [2] relates to H3K9Me2, H3K27Ac, H3K27Me3 in LOCK regions of A38Lg. Kind of experiment: ChIP-seq on control (DMSO) and 6AN-treated A38Lg cells. The experiment is classed as cell-based, human. The conditions noted are these: DMSO vs. 6AN. Here is the method: RNAi experiments were performed with siRNA transfections (Oligofectamine, Life Technologies) using negative control siRNA (Sigma, SIC001) and pre-designed siRNA oligonucleotides against indicated genes in parallel (Sigma, PGD: SASI_Hs02 00334150, CDH2: SASI_Hs01_00153995, TOP2B: SASI_Hs02_00311874). siRNAs against mutant KRAS^G12V (CUACGCCAACAGCUCCAAC) (SEQ ID NO:1) were custom designed. Cells were incubated with siRNAs for 4 days after transfection and harvested. For drug treatments in 2-D, cells were grown to 70-80% confluency and treated for 3 days with 250 uM 6AN or DMSO negative control.
Tests for statistical significance (two-tailed students t-test) were performed on data collected from technical replicate (performed in parallel at the same time) or biological replicate (performed at different times) experiments as indicated in the figure legends using excel software for western blot densitometry, MTT assays, and tumor measurements. Whole genome bisulfite sequencing and RNA-seq were performed with HiSeq instruments (Illumina) as described in Hansen et al. (Increased methylation variation in epigenetic domains across cancer types. Nat Genet 43, 768-75 (2011)). ChIP assays were performed as previously described for fixed cells with sonication. For ChIP-qPCR, equal amounts of paired input/IP DNA were amplified by real-time PCR (Roche LightCycler96) and fold enrichments calculated. Primer sequences are listed in Supplementary Table 11. […] IP sequencing reads were normalized to their corresponding inputs. […]
Chip-seq data processing. For 46 bp paired-end Illumina HiSeq2000 sequencing data, reads were aligned against human genome (hg19) using BWA with default parameters as described in Li et al. (Fast and accurate short read alignment with Burrows-Wheeler transform. Bioinformatics 25, 1754-60 (2009)). After alignment, duplicate reads were removed and only uniquely aligned reads were kept for further analysis. For 48 bp single-end Solid sequencing data, reads were aligned using Bowtie^7 with default parameters and only uniquely aligned reads were kept for further analysis. […]

The structures appear in SMILES notation. “Also recorded” adds a separate entry of the source.

Regarding `NC(=O)c1ccc(N)nc1` [6AN, 6-aminonicotinamide], in experiment [1], the “incorporation of labeled glucose into lactate and nucleotides (metabolites downstream of the PPP)” value was “reversed the previously detected high incorporation; also recorded: reduced incorporation”. Also, in experiment [2], the “H3K27Ac at genes repressed from LOCKs (ChIP-seq)” value is “reduced”, the “LOCK-wide H3K9Me2 from reprogrammed regions (ChIP-seq)” value is “quantitative increase” and the “levels of H3K27Me3 (ChIP-seq)” value was “remained stable; also recorded: unchanged”.

Values taken from patent US11795510B2, “Identification of epigenomic reprogramming in cancer and uses thereof” (The Johns Hopkins University, priority 2016, dated 2023).
